Test systems include HOP-92 NSCLC; HS 578T breast; SF-295 CNS; MOLT-4 leukemia; SK-MEL-2 melanoma; SK-MEL-28 melanoma; OVCAR-3 ovarian; NCI-H522 lung; MALME-3M melanoma; T-47D breast.
Common to all, as to assay: inhibition of tumour cell growth, NCI panel, 48 h

“And” between values parts separate entries of the source, which are not always exact repeats. Identical values can stand only once.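 Five concentrations, 48 hours, 96-well plates. GI50 is the concentration that inhibits growth by half. TGI: concentration producing complete growth inhibition.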

As for `CCOc1cc2c(cc1O)/C(=N\O)C[C@@H]1[C@@H]2CC[C@]2(C)[C@@H](O)CC[C@@H]12`, the GI50 with HOP-92 NSCLC is 14.8 µM; with HS 578T breast, 0.0271 µM; in the experiment with SF-295 CNS it was 0.00322 µM and 0.0266 µM; in the experiment with SK-MEL-28 melanoma it was 0.0143 µM; with OVCAR-3 ovarian, 0.0114 µM and 0.0299 µM. In addition, the TGI in the experiment with HOP-92 NSCLC is above 100 µM; in the experiment with HS 578T breast, above 82.9 µM; in the experiment on SF-295 CNS it was 0.081 µM and 0.0784 µM; with MOLT-4 leukemia, 0.977 µM; with SK-MEL-2 melanoma, 55.6 µM; with SK-MEL-28 melanoma, above 53.5 µM.

Take `N#C/C(=C\c1ccc(O)c(O)c1)C(=O)NC1CCC(CC2CCC(NC(=O)/C(C#N)=C/c3ccc(O)c(O)c3)CC2)CC1` (stereo not drawn): the TGI with NCI-H522 lung was 4.71 µM; in the experiment with HOP-92 NSCLC, 6.31 µM; in the experiment with MALME-3M melanoma it was 15 µM; in the experiment on SF-295 CNS, 3.55 µM; in the experiment with MOLT-4 leukemia, above 57.5 µM; with SK-MEL-2 melanoma, 3.89 µM. The TGI is above 100 µM in the experiment on SK-MEL-28 melanoma and 3.96 µM in the experiment with OVCAR-3 ovarian.

Take `C=CC(C=O)C1(O)CCOC(=O)/C1=C\N` (stereo not drawn): the GI50 in the experiment on NCI-H522 lung was above 100 µM; in the experiment on T-47D breast, above 100 µM; in the experiment with HS 578T breast it was 7.57 µM; with MALME-3M melanoma, above 100 µM; with SF-295 CNS it was above 100 µM; in the experiment with MOLT-4 leukemia, above 100 µM. Moreover, the GI50 in the experiment with SK-MEL-2 melanoma, in the experiment with SK-MEL-28 melanoma and in the experiment on OVCAR-3 ovarian was above 100 µM in each case. Further, the TGI with NCI-H522 lung, with T-47D breast, in the experiment on HS 578T breast, with MALME-3M melanoma, in the experiment on SF-295 CNS and with MOLT-4 leukemia was above 100 µM in each case. In addition, the TGI in the experiment with SK-MEL-2 melanoma, in the experiment on SK-MEL-28 melanoma and in the experiment with OVCAR-3 ovarian was above 100 µM throughout.

As for `NNC(=S)N/N=C(/C(=O)Nc1cc(Cl)ccc1Cl)C1C(=O)Nc2ccccc2S1=O` (stereo not drawn), the TGI with NCI-H522 lung, in the experiment on HOP-92 NSCLC, in the experiment with MALME-3M melanoma, with SF-295 CNS, in the experiment with MOLT-4 leukemia and with SK-MEL-2 melanoma was above 100 µM each time. Besides, the TGI in the experiment with SK-MEL-28 melanoma and in the experiment on OVCAR-3 ovarian was above 100 µM throughout.

Take `O=C(CSC(c1ccccc1)c1ccccc1)N/N=C/c1cccc(Cl)c1`: the GI50 with NCI-H522 lung was 10.1 µM; in the experiment on HOP-92 NSCLC it was 21.2 µM; in the experiment with HS 578T breast it was 15.7 µM; in the experiment with MALME-3M melanoma it was 13 µM; in the experiment on SF-295 CNS it was 22.9 µM; in the experiment with MOLT-4 leukemia, 19.1 µM. In addition, the results for the GI50 with SK-MEL-2 melanoma and with OVCAR-3 ovarian were 15.7 µM and 21.4 µM, respectively. Besides, the TGI in the experiment on NCI-H522 lung worked out at 23.7 µM; with HOP-92 NSCLC, 37.2 µM; with HS 578T breast it was 38.2 µM; in the experiment with MALME-3M melanoma, 26.1 µM; with SF-295 CNS it was 44.8 µM; in the experiment with MOLT-4 leukemia it was 43.2 µM. Also, the TGI with SK-MEL-2 melanoma is 30.1 µM; in the experiment with OVCAR-3 ovarian, 38.9 µM.

As to `COc1ccc(N=Nc2c(-c3ccccc3)nn(C(=O)CC(=O)Nc3cccc(Cl)c3)c2-c2ccccc2)cc1`, the TGI in the experiment with NCI-H522 lung, in the experiment on HOP-92 NSCLC, in the experiment on MALME-3M melanoma, in the experiment on SF-295 CNS, in the experiment on MOLT-4 leukemia and in the experiment with SK-MEL-2 melanoma was above 100 µM in each case. The TGI in the experiment on SK-MEL-28 melanoma and in the experiment with OVCAR-3 ovarian was above 100 µM in each case.

For `O=C(c1cc2ccccc2o1)N(Cc1ccccc1)c1ccccc1`, the TGI is 33.9 µM in the experiment with NCI-H522 lung; 44 µM with HOP-92 NSCLC; 59.8 µM in the experiment with MALME-3M melanoma; above 100 µM in the experiment on SF-295 CNS; 39.9 µM in the experiment with MOLT-4 leukemia; above 100 µM in the experiment with SK-MEL-2 melanoma. Besides, the TGI was determined as 87 µM in the experiment with SK-MEL-28 melanoma and 41.2 µM in the experiment with OVCAR-3 ovarian.

`Cc1cc(=O)[nH]o1`: the TGI in the experiment with NCI-H522 lung, with HOP-92 NSCLC, with HS 578T breast, in the experiment with SF-295 CNS, in the experiment on SK-MEL-2 melanoma and with SK-MEL-28 melanoma was above 100 µM in each case. Besides, in the experiment with OVCAR-3 ovarian, the TGI is above 100 µM.

Consider `COC(=O)C1=C(C(=O)OC)C23CC1C1C(C(=O)OC)=C(C(=O)OC)C12C1C=CC3C2C(=O)OC(=O)C21` (stereo not drawn), for which the TGI in the experiment on NCI-H522 lung was 63.5 µM; in the experiment with HOP-92 NSCLC, above 100 µM; in the experiment on MALME-3M melanoma it was above 100 µM; in the experiment on SF-295 CNS it was above 100 µM; with MOLT-4 leukemia it was above 100 µM; in the experiment with SK-MEL-2 melanoma, above 100 µM. Moreover, the TGI in the experiment on SK-MEL-28 melanoma is above 100 µM; in the experiment on OVCAR-3 ovarian, 17.6 µM.

Turning to `CCCc1c[nH]c(-c2ccc(-c3cc(CCC)c(C=O)[nH]3)s2)c1`, the TGI with NCI-H522 lung came to 31.1 µM; in the experiment on MALME-3M melanoma, 30 µM; in the experiment on SF-295 CNS, 33.1 µM; in the experiment on MOLT-4 leukemia, 86.2 µM; in the experiment on SK-MEL-2 melanoma, 28.5 µM; in the experiment on SK-MEL-28 melanoma it was 26.5 µM. This compound also displayed a TGI in the experiment on OVCAR-3 ovarian of 30.8 µM.

Take `Cc1c(C(=O)C/C(=N/NC(=O)C[n+]2ccccc2)C(=O)Nc2ccccc2)[n+](=O)c2ccccc2n1O`: the TGI with NCI-H522 lung, with MALME-3M melanoma, in the experiment on SF-295 CNS, in the experiment with MOLT-4 leukemia, in the experiment on SK-MEL-2 melanoma and with SK-MEL-28 melanoma was above 100 µM throughout. Moreover, the TGI with OVCAR-3 ovarian was above 100 µM.

As to `CCOC(=O)C1=C(O)CSC1=Nc1ccccc1`, the TGI with NCI-H522 lung, in the experiment on HOP-92 NSCLC, in the experiment on MALME-3M melanoma, in the experiment with SF-295 CNS, in the experiment on MOLT-4 leukemia and in the experiment on SK-MEL-2 melanoma was above 100 µM each time. Also, the TGI with SK-MEL-28 melanoma and with OVCAR-3 ovarian was above 100 µM each time.

With `CC(O)C(N=Cc1nc(-c2ccccc2)oc1O)C(=O)O` (stereo not drawn), the TGI in the experiment with NCI-H522 lung, in the experiment on HOP-92 NSCLC, in the experiment on MALME-3M melanoma, with SF-295 CNS, in the experiment with SK-MEL-2 melanoma and with SK-MEL-28 melanoma was above 100 µM in each case. The same compound showed a TGI in the experiment with OVCAR-3 ovarian above 100 µM.

As to `O=c1cccccc1NCCCCCCNc1cccccc1=O`, the TGI in the experiment on NCI-H522 lung, with MALME-3M melanoma, in the experiment with SF-295 CNS, with MOLT-4 leukemia, with SK-MEL-2 melanoma and in the experiment with SK-MEL-28 melanoma was above 100 µM in each case. The TGI with OVCAR-3 ovarian is above 100 µM.

(Values after PubChem BioAssay (NCI).)
